Test results from BindingDB's records for doi:10.1021/acs.jmedchem.7b01492 (Peking University, 2019).

Molecular target: Neuronal acetylcholine receptor subunit alpha-7 (Homo sapiens, UniProt P36544)
Test: Positive allosteric modulation of human alpha7 nAChR expressed in Xenopus laevis oocytes assessed as increase in acetylcholine-induced channel current by measuring acetylcholine EC50 at 10 uM at -90 mV holding potential preincubated for 2 mins followed by co-application with acetylcholine for 10 secs by two-electrode voltage clamp method (Rvb = 256.4 +/- 20.1 uM)

Sequence of Neuronal acetylcholine receptor subunit alpha-7 (P36544 whole entry): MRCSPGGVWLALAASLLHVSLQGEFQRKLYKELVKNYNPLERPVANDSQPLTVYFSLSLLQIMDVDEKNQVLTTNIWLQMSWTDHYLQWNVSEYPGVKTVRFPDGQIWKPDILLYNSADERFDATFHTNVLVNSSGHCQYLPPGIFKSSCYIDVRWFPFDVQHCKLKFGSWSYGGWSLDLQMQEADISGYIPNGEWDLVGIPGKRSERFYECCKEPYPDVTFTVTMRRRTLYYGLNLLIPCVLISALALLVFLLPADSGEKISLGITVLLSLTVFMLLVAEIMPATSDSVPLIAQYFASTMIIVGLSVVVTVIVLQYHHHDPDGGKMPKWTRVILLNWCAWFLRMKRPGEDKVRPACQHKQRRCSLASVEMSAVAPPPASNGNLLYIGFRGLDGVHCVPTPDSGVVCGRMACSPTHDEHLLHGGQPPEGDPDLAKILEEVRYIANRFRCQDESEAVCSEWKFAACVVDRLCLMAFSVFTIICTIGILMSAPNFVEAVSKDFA

## Cc1cccc(Cl)c1-n1cnc2nc(SCc3ccccc3)sc2c1=O
  EC50: 187 µM
